The text below walks through data of ChEMBL document CHEMBL4610104, “Dipleosporalones A and B, Dimeric Azaphilones from a Marine-Derived Pleosporales sp. Fungus” (J Nat Prod, 2020).

pIC50: −log10 of the molar value.

Assay [1] deals with MDA-MB-231. The assay is described as follows: Cytotoxicity against human MDA-MB-231 cells by MTT assay. It is filed as functional, cell-based. On the technique in general: Tetrazolium assays rely on reduction of a dye to a coloured formazan, in cell work by metabolically active cells.
The test system of assay [2] is HeLa. The assay is described as follows: Cytotoxicity against human HeLa cells by MTT assay. It counts as functional, cell-based.
Assay [3] concerns MGC-803. The assay is described as follows: Cytotoxicity against human MGC803 cells by MTT assay. It is filed as functional, cell-based.
For assay [4], the system named is MCF7. The assay is described as follows: Cytotoxicity against human MCF7 cells by MTT assay. It is filed as functional, cell-based.
Assay [5] deals with A549. The assay is described as follows: Cytotoxicity against human A549 cells by MTT assay. It is filed as functional, cell-based.
Assay [6] deals with MDA-MB-231. The assay is described as follows: Potency index, ratio of pinophilin-B IC50 to test compound IC50 against human MDA-MB-231 cells. It counts as functional.
For assay [7], the system named is HeLa. The assay is described as follows: Potency index, ratio of pinophilin-B IC50 to test compound IC50 against human HeLa cells. It counts as functional.
Assay [8] relates to MGC-803. Description: Potency index, ratio of pinophilin-B IC50 to test compound IC50 against human MGC803 cells. It counts as functional.
Assay [9] relates to MCF7. Description: Potency index, ratio of pinophilin-B IC50 to test compound IC50 against human MCF7 cells. It is filed as functional.
Assay [10] concerns A549. The assay is described as follows: Potency index, ratio of pinophilin-B IC50 to test compound IC50 against human A549 cells. It is filed as functional.

`Cc1cc(O)cc(O)c1C(=O)O[C@H]1[C@@H]2COC([C@H]3[C@H](CO)[C@H]4C(=O)[C@@](C)(O)[C@@H](OC(=O)c5c(C)cc(O)cc5O)[C@@H]5COC(/C=C/CO)=C[C@]453)=CC2=CC(=O)[C@@]1(C)O`: the pIC50 was 5.72 in the assay with MDA-MB-231 [1]; 5.60 in the assay with HeLa [2]; 5.89 in the assay with MGC-803 [3]; 5.68 with MCF7 [4]; 6.00 in the assay with A549 [5]. Besides, the “Ratio IC50” value with MDA-MB-231 [6], with HeLa [7], in the assay with MGC-803 [8], in the assay with MCF7 [9] and with A549 [10] was 30 - 90 in each case.
On to `Cc1cc(O)cc(O)c1C(=O)O[C@H]1[C@@H]2COC([C@H]3[C@H](CO)[C@@H](CO)[C@@H]3C3=CC4=CC(=O)[C@@](C)(O)[C@@H](OC(=O)c5c(C)cc(O)cc5O)[C@@H]4CO3)=CC2=CC(=O)[C@@]1(C)O`, for which the pIC50 in the assay on MDA-MB-231 [1] is 5.42; in the assay on HeLa [2] it was 5.52; in the assay on MGC-803 [3] it was 5.70; in the assay with MCF7 [4] it was below 5.00; in the assay with A549 [5], 5.46. Moreover, the “Ratio IC50” value in the assay on MDA-MB-231 [6], with HeLa [7], in the assay with MGC-803 [8], in the assay with MCF7 [9] and in the assay on A549 [10] was 30 - 90 each time.
As to `Cc1cc(O)cc(O)c1C(=O)O[C@H]1[C@@H]2COC(/C=C/CO)=CC2=CC(=O)[C@@]1(C)O` [PINOPHILIN B], the pIC50 with MDA-MB-231 [1] is 4.01; with HeLa [2], 4.11; in the assay with MGC-803 [3], 4.08; in the assay with MCF7 [4], 4.02; with A549 [5], 4.05.

The pIC50 is the negative decadic logarithm of the IC50, by convention in mol/L.
